Measured values published in US9439430B2, “Method of controlling resistant harmful plants” (priority 2012, dated 2016).

Experiments:
[1] = test system: TTTTT (all resistant and sensitive biotypes); experiment: Greenhouse test, PO application, mean over all resistant and sensitive biotypes; type: in vivo; conditions: (A) 50, (B) 20, mixture 50 + 20 g of AS/ha
Source text: (§1) The 1:1 mixture of the two soil types was used specifically for cultivating small-seeded dicotyledonous weed since the standard field soil on its own tends to silt up, which may have an adverse effect on the emergence of small-seeded weeds. The resistances mentioned in the tables were confirmed beforehand in standard monitoring experiments. Nevertheless, the origins examined may have additional, hitherto unconfirmed resistances to various mechanisms of action.
(§2) The pots were then cultivated in a greenhouse (12-16 h light, temperature day 20-22° C., night 15-18° C.) until the time of application. The pots were treated at various BBCH stages of the seeds/plants on a laboratory track sprayer with spray liquors comprising the compositions according to the invention, mixtures of the prior art or the individual components. Application of the active compounds or active compound combinations and wetting agents formulated as WG, WP, EC or otherwise was carried out at the appropriate growth stages of the plants. The amount of water used for spray application was 100-600 l/ha. After the treatment, the plants were returned to the greenhouses and fertilized and watered as required. The pots were cultivated in a greenhouse (12-16 h light, temperature day 20-22° C., night 15-18° C.).
(§3) 3 weeks after the application, the foliar effect was evaluated on a scale of 0-100%:
(§4) 0%=no noticeable effect compared to untreated plants
(§5) 100%=full effect compared to untreated plants
(§6) The following abbreviations were used: • BBCH the BBCH code provides information about the morphological development stage of a plant. Officially, the abbreviation denotes the Biologische Bundesanstalt, Bundessortenamt and CHemische Industrie [Federal Biological Institute for Agriculture and Forestry, Federal Office for Crop Plant Varieties, Chemical Industry]. The range of BBCH 00-10 denotes the germination stages of the seeds until surface penetration. The range of BBCH 11-25 denotes the leaf development stages until stocking (corresponds to the number of tillers or side-shoots). • PE pre-emergence soil application; BBCH of the seeds/plants 00-10 • PO post-emergence application on the green parts of the plants; BBCH of the plants 11-25 • IU soil loamy silt—standard field soil • l/ha liters per hectare • S sensitive—the weed populations are sensitive to the active compounds tested • TSR target-site resistance. The weed populations comprise biotypes having a site-of-action-specific resistance, i.e. the binding site at the site of action is modified as a result of natural mutations in the gene sequence so that the active compounds are no longer able to bind, or bind in an unsatisfactory manner, and are therefore no longer able to act. • NTR non-target-site herbicide resistance; this is differentiated, inter alia, into EMR (Enhanced Metabolic Resistance) (the weed populations comprise biotypes having metabolic resistance, i.e. the plants are capable of metabolizing the active compounds more quickly via enzyme complexes, i.e. the active compounds are degraded more quickly in the plant), into reduced penetration into the plant, reduced translocation in the plant, accelerated excretion. […]

[2] = test system: LOLSS; experiment: Greenhouse test, post-emergence (PO) application, foliar effect; type: in vivo, Lolium spp.; conditions: (A) 50, (B) 20, mixture 50 + 20 g of AS/ha, 3 weeks after application
Source text: as §1, §2, §3, §4, §5, §6

[3] = test system: KCHSC; experiment: Greenhouse test, pre-emergence (PE) soil application; type: in vivo, Kochia scoparia; parameters: key: % effect: 0 = no effect, 100 = full effect vs untreated; conditions: group (B) compound alone, 20 g of AS/ha
Source text: as §1, §2, §3, §4, §5, §6

[4] = test system: ERIBO; experiment: Greenhouse test, post-emergence (PO) application, foliar effect; type: in vivo, Erigeron bonariensis; conditions: (A) 50, (B) 20, mixture 50 + 20 g of AS/ha, 3 weeks after application
Source text: as §1, §2, §3, §4, §5, §6

[5] = test system: CHEAL; experiment: Greenhouse test, pre-emergence (PE) soil application; type: in vivo, Chenopodium album; parameters: key: % effect: 0 = no effect, 100 = full effect vs untreated; conditions: group (B) compound alone, 20 g of AS/ha
Source text: as §1, §2, §3, §4, §5, §6

[6] = test system: EPHHL; experiment: as above; type: in vivo, Euphorbia heterophylla; parameters: key: % effect: 0 = no effect, 100 = full effect vs untreated; conditions: group (B) compound alone, 20 g of AS/ha
Source text: as §1, §2, §3, §4, §5, §6

[7] = test system: AMATA; experiment: Greenhouse test, post-emergence (PO) application, foliar effect; type: in vivo, Amaranthus rudis; conditions: (A) 50, (B) 20, mixture 50 + 20 g of AS/ha, 3 weeks after application
Source text: as §1, §2, §3, §4, §5, §6

[8] = test system: AMATA; experiment: Greenhouse test, pre-emergence (PE) soil application; type: in vivo, Amaranthus rudis; parameters: key: % effect: 0 = no effect, 100 = full effect vs untreated; conditions: group (B) compound alone, 20 g of AS/ha
Source text: as §1, §2, §3, §4, §5, §6

[9] = test system: LOLSS; experiment: as above; type: in vivo, Lolium spp.; parameters: key: % effect: 0 = no effect, 100 = full effect vs untreated plants; conditions: group (B) compound alone, 20 g of AS/ha
Source text: as §1, §2, §3, §4, §5, §6

[10] = test system: KCHSC; experiment: Greenhouse test, post-emergence (PO) application, foliar effect; type: in vivo, Kochia scoparia; conditions: (A) 50, (B) 20, mixture 50 + 20 g of AS/ha, 3 weeks after application
Source text: as §1, §2, §3, §4, §5, §6

[11] = test system: BIDSU; experiment: Greenhouse test, pre-emergence (PE) soil application; type: in vivo, Bidens subalternans; conditions: group (B) compound alone, 20 g of AS/ha
Source text: as §1, §2, §3, §4, §5, §6

[12] = test system: APESV; experiment: Greenhouse test, post-emergence (PO) application, foliar effect; type: in vivo, Apera spica-venti; conditions: (A) 50, (B) 20, mixture 50 + 20 g of AS/ha, 3 weeks after application
Source text: as §1, §2, §3, §4, §5, §6

[13] = test system: BRODI; experiment: as above; type: in vivo, Bromus diformis; conditions: (A) 50, (B) 20, mixture 50 + 20 g of AS/ha, 3 weeks after application
Source text: as §1, §2, §3, §4, §5, §6

[14] = test system: ERIBO; experiment: Greenhouse test, pre-emergence (PE) soil application; type: in vivo, Erigeron bonariensis; parameters: key: % effect: 0 = no effect, 100 = full effect vs untreated; conditions: group (B) compound alone, 20 g of AS/ha
Source text: as §1, §2, §3, §4, §5, §6

[15] = test system: AMAPA; experiment: Greenhouse test, post-emergence (PO) application, foliar effect; type: in vivo, Amaranthus palmeri; conditions: AMAPA resistant - group B (TSR), C1 (TSR) and G (NTR), (A) 50, (B) 20, mixture 50 + 20 g of AS/ha, 3 weeks after application
Source text: as §1, §2, §3, §4, §5, §6

## COc1cc(OC)nc(NC(=O)NS(=O)(=O)c2ncccc2C(F)(F)F)n1 [(B1), flazasulfuron]
[1]; mean of resistant biotypes (n = 17 or n = 15)
  TTTTT resistant mean (effect): 40%
[1]; mean of sensitive biotypes (n = 11)
  TTTTT sensitive mean (effect): 87%
[2]; LOLSS resistant - group G (NTR)
  foliar effect: 60%
[2]; LOLSS resistant group A (TSR, NTR), B (NTR) and C2 (NA)
  foliar effect: 60%
[2]; LOLSS resistant group A (TSR, NTR), B (TSR, NTR) and C2 (NA)
  foliar effect: 30%
[2]; LOLSS sensitive
  foliar effect: 95%
[3]
  effect on KCHSC resistant - group B (TSR): 0
  effect on KCHSC sensitive: 70
[4]; ERIBO resistant - group B (NA) and G (NTR)
  foliar effect: 50%
[4]; ERIBO sensitive
  foliar effect: 90%
[5]
  effect on CHEAL resistant - group B (TSR), C1 (NA) and G (NTR): 60
  effect on CHEAL sensitive: 88
[6]
  effect on EPHHL resistant - group B (TSR): 0
  effect on EPHHL resistant - group B (TSR) and G (NTR): 20
  effect on EPHHL sensitive: 40
[7]; AMATA resistant - group B (TSR), C1 (TSR)
  foliar effect: 50%
[7]; AMATA sensitive
  foliar effect: 60%
[8]
  effect on AMATA sensitive: 70
[9]
  effect on LOLSS resistant - group G (NTR): 80
  effect on LOLSS resistant group A (TSR, NTR), B (NTR) and C2 (NA): 70
  effect on LOLSS resistant group A (TSR, NTR), B (TSR, NTR) and C2 (NA): 70
  effect on LOLSS sensitive: 70
[10]; KCHSC resistant - group B (TSR)
  foliar effect: 0%
[10]; KCHSC sensitive
  foliar effect: 90%
[11]
  effect on BIDSU sensitive: 80
[12]; APESV resistant - group B (TSR, NTR) and K1/3 (NA)
  foliar effect: 30%
[12]; APESV sensitive
  foliar effect: 100%
[13]; BRODI resistant - group A (TSR), B (NTR) and G (NTR)
  foliar effect: 75%
[13]; BRODI sensitive
  foliar effect: 100%
[14]
  effect on ERIBO resistant - group B (NA) and G (NTR): 0
  effect on ERIBO sensitive: 70
[15]
  foliar effect: 40%
